Earlier results, collected in US7638678B2, “Animal model for perimenopause and menopause and methods of inducing ovarian failure” (The Arizona Board of Regents, priority 2002, dated 2009).

Columns and labels:
ovarian follicles = conditions: B6C3F1 mice dosed with VCH; cited from earlier work
[1] = i.p. minipumps versus injection; cited from earlier work

Row | Compound | Premature ovarian failure in long term studies (ovarian follicles) | Decrease of the effective dose by continuous administration [1]
1 | C=CC1CC=CCC1 (centres unmarked) [VCH, 4-vinylcyclohexene] | premature ovarian failure occurred within a year | 
2 | endostatin |  | 8-10 fold
